Patent US8961930B2, “Isatin derivatives for use as in vivo imaging agents” (Imperial Innovations Limited, priority 2008, dated 2015)

Legend:
Type in all cases: biochemical
[1] = target: T1, caspase 1 (Homo sapiens, UniProt P29466); assay: Fluorimetric in vitro caspase inhibition assay (7-AMC), caspase 1; settings: recombinant human caspase 1, 10 μM Ac-YVAD-AMC; read-out: Caspase EC50 (nM), 1/6/8: caspase 1
T1 construct: purchased Biomol International, UK
T1 sequence (P29466 120-297 limits assumed): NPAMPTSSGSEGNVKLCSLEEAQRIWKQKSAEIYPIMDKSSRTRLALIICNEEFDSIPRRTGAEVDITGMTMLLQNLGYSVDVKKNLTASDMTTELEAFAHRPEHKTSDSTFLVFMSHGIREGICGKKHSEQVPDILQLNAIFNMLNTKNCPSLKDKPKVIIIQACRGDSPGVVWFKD
T1 sequence (P29466 317-404 limits assumed): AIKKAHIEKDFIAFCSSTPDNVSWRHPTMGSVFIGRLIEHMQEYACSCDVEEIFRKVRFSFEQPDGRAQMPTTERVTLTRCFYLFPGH
Method: (§1) Recombinant human caspases-1, -3, -6, -7, and -8 and their peptide-specific substrates were purchased from Biomol International, UK Inhibition of the recombinant caspases by non-radioactive isatins was assessed using a fluorometric assay that measures the accumulation of a fluorogenic product, 7-amino-4-methylcoumarin (7-AMC). All assays were performed in 96-well plates at a volume of 200 μl per well. The assays were performed at 37° C. in an appropriate reaction buffer as described below for each caspase. For caspase 1, the buffer comprised of 0.1% CHAPS, 100 mM NaCl, 5 mM 2-mercaptoethanol, 100 mM HEPES (pH 7.4), 2 mM EDTA, 10% sucrose, and 10 μM of the peptide substrate Ac-YVAD-AMC. For caspase 3: 20 mM HEPES (pH 7.4), 10% sucrose, 100 mM NaCl, 0.1% CHAPS, 2 m, mM EDTA, and 10 μM Ac-DEVD-AMC. For caspase 6: 20 mM HEPES (pH 7.4), 10% sucrose, 100 mM NaCl, 0.1% CHAPS, 2 mM EDTA, and 10 μM Ac-VEID-AMC. For caspase 7: 20 mM HEPES (pH 7.4), 10% sucrose, 5 mM 2-mercaptoethanol, 100 mM NaCl, 0.1% CHAPS, 2 mM EDTA, 10 μM Ac-DEVD-AMC. For caspase 8: 20 mM HEPES (pH 7.4), 10% sucrose, 100 mM NaCl, 0.1% CHAPS, 2 mM EDTA, and 10 μM Ac-IETD-AMC. The Buffers contained non-radioactive isatins in DMSO at a final concentration of 500, 50, 5 μM; 500, 50, 5 nM; 500, 50, 5 pM; the final concentration of DMSO in all wells was 5% of the total volume. Recombinant caspases were used at 0.5 units per assay (˜500 pmol substrate converted per h). All reagents except the peptide substrate were pre-incubated for 10 min. The peptide substrate (final concentration 10 μM) was then added and the plate was incubated for a further 30 min; 30 min was selected after initial linearity study where reaction was assessed after 10, 30, 60 or 90 min. The 30 min time point was selected. Respective control wells contained all reaction components without enzyme. The amount of 7-AMC produced was measured on a fluorescence microplate reader (Victor2; Perkin-Elmer Life sciences) at excitation and emission wavelengths of 355 nm and 460 nm, respectively. The concentration of isatin that inhibits the caspase activity by 50% (EC50) was estimated by non-linear regression analysis using GraphPad Prism (Version 4.0 for Windows, GraphPad Software, San Diego Calif. USA). All the isatins were analyzed in duplicate; the assays were repeated once. Known compounds 13-16 were included as reference compounds.
(§2) The data are the average for two runs, each of which was duplicated, at nine concentrations ranging from 5 pM to 500 μM; the drug concentration required to inhibit each enzyme by 50% (EC50) was obtained from nonlinear regression analysis of the inhibition profiles.

[2] = target: T2, caspase 6 (Homo sapiens, UniProt P55212); assay: Fluorimetric in vitro caspase inhibition assay (7-AMC), caspase 6; settings: recombinant human caspase 6, 10 μM Ac-VEID-AMC; read-out: Caspase EC50 (nM), 1/6/8: caspase 6
T2 construct: purchased Biomol International, UK
T2 sequence (P55212 24-179 limits assumed): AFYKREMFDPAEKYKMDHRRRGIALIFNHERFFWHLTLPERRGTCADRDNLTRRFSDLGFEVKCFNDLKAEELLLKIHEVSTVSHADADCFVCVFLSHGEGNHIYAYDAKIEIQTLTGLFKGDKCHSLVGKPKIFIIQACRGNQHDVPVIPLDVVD
T2 sequence (P55212 194-293 limits assumed): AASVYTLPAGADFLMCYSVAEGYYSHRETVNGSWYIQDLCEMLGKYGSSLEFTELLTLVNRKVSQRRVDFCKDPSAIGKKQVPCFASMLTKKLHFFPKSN
Method: as §1, §2

[3] = target: T3, caspase 7 (Homo sapiens, UniProt P55210); assay: Fluorimetric in vitro caspase inhibition assay (7-AMC), caspase 7; settings: recombinant human caspase 7, 10 μM Ac-DEVD-AMC
T3 construct: purchased Biomol International, UK
T3 sequence (P55210 24-198 limits assumed): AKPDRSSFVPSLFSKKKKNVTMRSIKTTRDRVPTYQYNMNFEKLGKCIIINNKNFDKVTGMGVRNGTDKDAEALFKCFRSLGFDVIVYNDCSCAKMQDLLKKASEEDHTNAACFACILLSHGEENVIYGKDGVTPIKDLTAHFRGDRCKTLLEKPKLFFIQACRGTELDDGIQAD
T3 sequence (P55210 207-303 limits assumed): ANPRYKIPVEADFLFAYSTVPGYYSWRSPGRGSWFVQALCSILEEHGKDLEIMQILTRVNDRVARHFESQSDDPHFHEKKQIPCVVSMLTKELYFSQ
Method: as §1, §2

[4] = target: T4, caspase 8 (Homo sapiens, UniProt Q14790); assay: Fluorimetric in vitro caspase inhibition assay (7-AMC), caspase 8; settings: recombinant human caspase 8, 10 μM Ac-IETD-AMC; read-out: Caspase EC50 (nM), 1/6/8: caspase 8
T4 construct: purchased Biomol International, UK
T4 sequence (Q14790 217-374 limits assumed): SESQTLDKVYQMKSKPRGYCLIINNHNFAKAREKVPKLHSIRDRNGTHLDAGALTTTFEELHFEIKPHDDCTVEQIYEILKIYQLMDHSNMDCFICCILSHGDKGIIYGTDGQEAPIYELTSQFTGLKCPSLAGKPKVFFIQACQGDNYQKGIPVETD
T4 sequence (Q14790 385-479 limits assumed): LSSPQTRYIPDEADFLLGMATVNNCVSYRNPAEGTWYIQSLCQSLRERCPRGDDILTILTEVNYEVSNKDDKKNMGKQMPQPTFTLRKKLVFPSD
Method: as §1, §2

O=C1C(=O)N(Cc2ccc(F)cc2)c2ccc(S(=O)(=O)N3CCC[C@H]3COc3cccc(F)c3)cc21 [Compound 1, (S)-1-(4-Fluorobenzyl)-5-(2-(3-fluorophenoxymethyl)-pyrrolidine-1-sulfonyl)isatin]
EC50 [1]: > 5000 nM
EC50 [2]: > 5000 nM
EC50 [3]: 13.5 nM
EC50 [4]: > 5000 nM

O=C1C(=O)N(Cc2ccc(F)cc2)c2ccc(S(=O)(=O)N3CCC[C@H]3COc3ccc(F)cc3F)cc21 [Compound 2, (S)-1-(4-Fluorobenzyl)-5-(2-(2,4-difluorophenoxymethyl)-pyrrolidine-1-sulfonyl)isatin]
EC50 [1]: > 5000 nM
EC50 [2]: > 5000 nM
EC50 [3]: 13 nM
EC50 [4]: > 5000 nM

O=C1C(=O)N(Cc2ccc(F)cc2)c2ccc(S(=O)(=O)N3CCC[C@H]3COC3CCOCC3)cc21 [Compound 4, (S)-1-(4-Fluorobenzyl)-5-(2-(tetrahydro-2H-pyran-4-yloxymethyl)-pyrrolidine-1-sulfonyl)isatin]
EC50 [1]: > 5000 nM
EC50 [2]: > 5000 nM
EC50 [3]: 14.4 nM
EC50 [4]: > 5000 nM

O=C1C(=O)N(Cc2ccc(F)cc2)c2ccc(S(=O)(=O)N3CCC[C@H]3COc3ccncn3)cc21 [Compound 5, (S)-1-(4-Fluorobenzyl)-5-(2-(pyrimidin-4-yloxymethyl)-pyrrolidine-1-sulfonyl)isatin]
EC50 [1]: > 5000 nM
EC50 [2]: > 5000 nM
EC50 [3]: 2.3 nM
EC50 [4]: > 5000 nM

O=C1C(=O)N(Cc2cn(CCF)nn2)c2ccc(S(=O)(=O)N3CCC[C@H]3COc3ccccc3)cc21 [Compound 10, (S)-1-((1-(2-Fluoroethyl)-1H-[1,2,3]-triazol-4-yl)methyl)-5-(2-phenoxymethyl-pyrrolidine-1-sulfonyl)isatin]
EC50 [1]: > 5000 nM
EC50 [2]: > 5000 nM
EC50 [3]: 28.2 nM
EC50 [4]: > 5000 nM

O=C1C(=O)N(Cc2cn(CCF)nn2)c2ccc(S(=O)(=O)N3CCC[C@H]3COc3ccc(F)cc3F)cc21 [Compound 11, (S)-1-((1-(2-Fluoroethyl)-1H-[1,2,3]-triazol-4-yl)methyl)-5-(2(2,4-difluorophenoxymethyl)-pyrrolidine-1-sulfonyl)isatin]
EC50 [1]: > 5000 nM
EC50 [2]: > 5000 nM
EC50 [3]: 2.2 nM
EC50 [4]: > 5000 nM

O=C1C(=O)N(Cc2ccccc2)c2ccc(S(=O)(=O)N3CCC[C@H]3COc3ccccc3)cc21 [Compound 13, (S)-1-benzyl-5-(2-phenoxymethyl-pyrrolidine-1-sulfonyl)isatin, reference compound]
EC50 [1]: > 5000 nM
EC50 [2]: > 5000 nM
EC50 [3]: 29.4 nM
EC50 [4]: > 5000 nM

O=C1C(=O)N(Cc2ccc(I)cc2)c2ccc(S(=O)(=O)N3CCC[C@H]3COc3ccccc3)cc21 [Compound 14, (S)-1-(4-iodobenzyl)-5-(2-phenoxymethyl-pyrrolidine-1-sulfonyl)isatin, reference compound]
EC50 [1]: > 5000 nM
EC50 [2]: > 5000 nM
EC50 [3]: 25.3 nM
EC50 [4]: > 5000 nM

O=C1C(=O)N(Cc2ccc(F)cc2)c2ccc(S(=O)(=O)N3CCC[C@H]3COc3ccccc3)cc21 [Compound 15, (S)-1-(4-fluorobenzyl)-5-(2-phenoxymethyl-pyrrolidine-1-sulfonyl)isatin, reference compound]
EC50 [1]: > 5000 nM
EC50 [2]: > 5000 nM
EC50 [3]: 19.8 nM
EC50 [4]: > 5000 nM

O=C1C(=O)N(Cc2ccc(F)cc2)c2ccc(S(=O)(=O)N3CCCC3)cc21 [Compound 16, 1-(4-Fluorobenzyl)-5-(pyrrolidine-1-sulfonyl)isatin, reference compound]
EC50 [1]: > 5000 nM
EC50 [2]: > 5000 nM
EC50 [3]: 78.6 nM
EC50 [4]: > 5000 nM

O=C1C(=O)N(Cc2ccc(F)cc2)c2ccc(S(=O)(=O)N3CCC[C@H]3COc3ccc(F)cc3)cc21 [Compound 22, (S)-1-(4-Fluorobenzyl)-5-(2-(4-fluorophenoxymethyl)-pyrrolidine-1-sulfonyl)isatin]
EC50 [1]: > 5000 nM
EC50 [2]: > 5000 nM
EC50 [3]: 8 nM
EC50 [4]: > 5000 nM

C#CCN1C(=O)C(=O)c2cc(S(=O)(=O)N3CCC[C@H]3COc3ccc(F)cc3F)ccc21 [Compound 25, (S)-1-(2-Propynyl)-5-(2-(2,4-difluorophenoxymethyl)-pyrrolidine-1-sulfonyl)isatin]
EC50 [1]: > 5000 nM
EC50 [2]: > 5000 nM
EC50 [3]: 60.4 nM
EC50 [4]: > 5000 nM
